Experimental data reported in patent US20200016173A1 (CHINA MEDICAL UNIVERSITY, priority 2016, published 2020).

Key:
[1] = tested on: human stomach gastric carcinoma (SNU-1) xenograft; test: human-tumor xenograft in athymic nude mice; assay type: in vivo; conditions: I.P., 5-FU 5 mg/kg, Exe 100 mg/kg, 3 times/wk for 4-wks
gastric cancer = conditions: fluorouracil chemotherapy, GCa patients; cited from earlier work

O=c1[nH]cc(F)c(=O)[nH]1 [5-FU, fluorouracil]
tumor growth [1]: suppress
toxicity (patients with other gastrointestinal malignancies) (gastric cancer): > 50 % patients
